# Values of other authors as cited in US20160296499A1, “Spiroindoline Antiparasitic Derivatives” (ZOETIS SERVICES LLC, priority 2013, published 2016).
# Legend:
# vertebrate VAChT = biological target: T1, vertebrate VAChT (Homo sapiens, UniProt Q16572); conditions: Khare et. al.; cited from earlier work
# T1 sequence (Q16572 1-532): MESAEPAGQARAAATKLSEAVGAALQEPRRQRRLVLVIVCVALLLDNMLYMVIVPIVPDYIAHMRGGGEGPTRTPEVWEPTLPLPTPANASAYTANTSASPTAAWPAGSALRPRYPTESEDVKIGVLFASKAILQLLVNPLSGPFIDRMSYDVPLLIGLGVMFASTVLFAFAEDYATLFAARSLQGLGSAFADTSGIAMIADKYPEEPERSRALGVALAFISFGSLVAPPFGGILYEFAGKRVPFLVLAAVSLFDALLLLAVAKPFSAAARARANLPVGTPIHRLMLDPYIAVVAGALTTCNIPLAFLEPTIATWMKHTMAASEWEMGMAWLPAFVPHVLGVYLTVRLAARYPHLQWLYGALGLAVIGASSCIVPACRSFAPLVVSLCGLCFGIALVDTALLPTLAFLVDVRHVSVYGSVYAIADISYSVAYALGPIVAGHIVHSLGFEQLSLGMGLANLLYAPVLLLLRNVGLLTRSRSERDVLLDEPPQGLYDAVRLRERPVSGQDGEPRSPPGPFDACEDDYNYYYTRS
# mammals = conditions: Brittain et. al.; cited from earlier work
structure (smiles),measurement,setting,value
"OC1CCCCC1N1CCC(c2ccccc2)CC1 (centres unmarked) [Vesamicol, 2-(4-phenyl-piperidino)-cyclohexanol]",binding affinity to vertebrate VAChT,vertebrate VAChT,high affinity
same,toxicity to mammals,mammals,highly toxic
